# Source: patent US20220348558A1, “INHIBITORS OF ENCEPHALITIC ALPHAVIRUSES” (priority 2019, published 2022)
# How the values were obtained:
# VEEV TC83 = assay: microbe, parasite or virus in culture; assay type: cell-based; conditions: Venezuelan equine encephalitis virus, Vero 76, 48 h, read-out: VEEV TC83 EC50 nM
# WEEV California = assay: microbe, parasite or virus in culture; assay type: cell-based; conditions: Western equine encephalitis virus, Vero 76, 48 h, read-out: WEEV California EC50 nM
Structure (SMILES),EC50 (VEEV TC83) [nM],EC50 (WEEV California) [nM]
"COc1cccc(-n2c(C3CCCN3)nc3ccc([N+](=O)[O-])cc3c2=O)c1 (centres unmarked) [Example 32, 3-(3-methoxyphenyl)-6-nitro-2-(pyrrolidin-2-yl)quinazolin-4 (3H)-one]",> 1000,> 1000
"COc1ccc(-n2c([C@H]3CCCN3)nc3c(-c4ccncc4)cc(C#N)cc3c2=O)cc1F [Example 109, (R)-3-(3-fluoro-4-methoxyphenyl)-4-oxo-8-(pyridin-4-yl)-2-(pyrrolidin-2-yl)-3,4-dihydroquinazoline-6-carbonitrile]",1 to 50,1 to 50
"O=c1c2cc([N+](=O)[O-])ccc2nc(C2CCCN2)n1-c1cccc(F)c1 (centres unmarked) [Example 40, 3-(3-fluorophenyl)-6-nitro-2-(pyrrolidin-2-yl)quinazolin-4 (3H)-one]",1 to 50,501 to 1000
"N#Cc1ccc(-n2c([C@H]3CCCN3)nc3ccc([N+](=O)[O-])cc3c2=O)cc1 [Example 20, (R)-4-(6-nitro-4-oxo-2-(pyrrolidin-2-yl)quinazolin-3 (4H)-yl)benzonitrile]",1 to 50,51 to 150
"COc1ccc(-n2c([C@H]3CCCN3)nc3c(Br)cc([N+](=O)[O-])cc3c2=O)cc1 [Example 80, (R)-8-bromo-3-(4-methoxyphenyl)-6-nitro-2-(pyrrolidin-2-yl) quinazolin-4 (3H)-one]",1 to 50,1 to 50
"COc1ccc(-n2c([C@@H]3CCCN3)nc3c(C(F)(F)F)cc(C#N)cc3c2=O)cc1F [Example 77, (S)-3-(3-fluoro-4-methoxyphenyl)-4-oxo-2-(pyrrolidin-2-yl)-8-(trifluoromethyl)-3,4-dihydroquinazoline-6-carbonitrile]",51 to 150,1 to 50
"COc1ccc(-n2c([C@H]3CCCN3)nc3ccc(F)c(F)c3c2=O)cc1 [Example 28, (R)-5,6-difluoro-3-(4-methoxyphenyl)-2-(pyrrolidin-2-yl) quinazolin-4 (3H)-one]",151 to 500,> 1000
"COc1ccc(-n2c([C@H]3CCCN3)nc3c(-c4cncc(F)c4)cc([N+](=O)[O-])cc3c2=O)cc1F [Example 93, (R)-3-(3-fluoro-4-methoxyphenyl)-8-(5-fluoropyridin-3-yl)-6-nitro-2-(pyrrolidin-2-yl) quinazolin-4 (3H)-one]",1 to 50,1 to 50
"COc1ccc(-n2c([C@H](C)N(C)C)nc3ccc([N+](=O)[O-])cc3c2=O)cc1 [Example 208, (S)-2-(1-(dimethylamino)ethyl)-3-(4-methoxyphenyl)-6-nitroquinazolin-4 (3H)-one]",51 to 150,51 to 150
"O=c1c2cc([N+](=O)[O-])ccc2nc([C@H]2CCCN2)n1-c1ccc(OC(F)(F)F)cc1 [Example 44, (R)-6-nitro-2-(pyrrolidin-2-yl)-3-(4-(trifluoromethoxy)phenyl)quinazolin-4 (3H)-one]",> 1000,> 1000
"COc1ccc(-n2c([C@@H]3CC(=O)CN3)nc3c(-c4ccc(C)nc4)cc(C#N)cc3c2=O)cc1F [Example 185, (S)-3-(3-fluoro-4-methoxyphenyl)-8-(6-methylpyridin-3-yl)-4-oxo-2-(4-oxopyrrolidin-2-yl)-3,4-dihydroquinazoline-6-carbonitrile]",151 to 500,> 1000
"COc1ccc(-n2c([C@@H]3CCCN3)nc3ccc([N+](=O)[O-])cc3c2=O)cc1 [Example 12, (S)-3-(4-methoxyphenyl)-6-nitro-2-(pyrrolidin-2-yl) quinazolin-4 (3H)-one]",1 to 50,151 to 500
"COc1c(F)cc(-n2c(C3CCCN3)nc3c(-c4ccnc(C)c4)cc(C#N)cc3c2=O)cc1F (centres unmarked) [Example 155, 3-(3,5-Difluoro-4-methoxyphenyl)-8-(2-methylpyridin-4-yl)-4-oxo-2-(pyrrolidin-2-yl)-3,4-dihydroquinazoline-6-carbonitrile]",1 to 50,1 to 50
